The test system of assay [1] is radiation-induced dermatitis on backs of rats. Kind of assay: Radiation-induced dermatitis in rat skin model. In kind it is in vivo.
For assay [2], the system named is supercoiled pUC19 plasmid. The experiment in a line: Hydroxyl radical scavenging, plasmid DNA protection. In kind it is biochemical. The conditions noted are these: 0-70 mM, pH 6.5; even the lowest concentration tested; UV 2.5 min. The protocol:
Method: 0.3 μg pUC19 plasmid was added to a 16 μl incubation containing Tris-EDTA buffer, then either PrC-210 (0-70 mM, pH 6.5) or buffer were added to the incubation. The polypropylene microtubes were then sealed and irradiated for 2.5 min at a distance of 80 cm from a UV lamp. Samples were then applied to 1% agarose gels and electrophoresed using methods known in the art.

For `CNCC(CS)CNC` [PrC-210, 3-methylamino-2-methylaminomethyl-propane-1-thiol], the “dose for complete protection in 0:95:5 vehicle relative to 50:30:20 vehicle” value in assay [1] (0:95:5 versus 50:30:20 ethanol:PG:water) was “about 10 times”. Besides, the “Dermatitis Score (% of irradiated field free of scab material)” value is on record as less than 50% in assay [1] (370 mM, vehicle 0:95:5, Experiment 440-443); 100 ± 0% in assay [1] (370 mM, vehicle 50:30:20, Experiment 574-577); 98 ± 3% in assay [1] (370 mM, vehicle 50:30:20, Experiment 643-646); 68% in assay [1] (740 mM, vehicle 0:95:5 ethanol:prop. glycol:water, Experiment 440-443); 96 ± 3% in assay [1] (740 mM, vehicle 50:30:20, Experiment 626-629); 96 ± 4% in assay [1] (740 mM, vehicle 50:30:20, Experiment 643-646). Moreover, the “Dermatitis Score (% of irradiated field free of scab material)” value in assay [1] (900 mM PrC-210, vehicle 0:95:5, cage 440, 8.7 Gy) is given as 68 ± 10%; in assay [1] (1200 mM PrC-210, vehicle 0:95:5, cage 441), 95 ± 5%. The “concentration conferring complete protection against radiation-induced dermatitis” value in assay [1] (95:5 PG:water vehicle) was 1200 to 1500 mM; in assay [1] (vehicle 50:30:20 ethanol:PG:water, total applied volume 105 ul), 370 mM. The “concentration of topical aminothiol alone conferring complete protection against radiodermatitis” value in assay [1] (aminothiol alone, without epinephrine, 8.7 Gy) is reported as approximately 1200 mM. Further, in assay [1] (vehicle 0:95:5 ethanol:PG:water), the “dose required for complete protection (100% Clear Skin) against radiodermatitis” value is listed as approximately 24 mg/cm skin. Further, the “applied dose conferring complete protection against radiation-induced dermatitis” value in assay [1] (vehicle 50:30:20 ethanol:PG:water) is 2.8 mg/cm^2 skin. The “protection of supercoiled DNA from OH radical damage” value in assay [2] is “completely prevented damage to supercoiled DNA”.

For the origin of these results see US7314959B2, “Amino thiol compounds and compositions for use in conjunction with cancer therapy” (Wisconsin Alumni Research Foundation, priority 2003, dated 2008).
